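Protocol summary: plate cells (96-well), add compound at 5 concentrations, incubate 48 h, interpolate endpoints linearly. Here, GI50 denotes the concentration required for 50% inhibition of growth.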 The source made the active and inactive calls. Cut-off read from the data, not from the text of the source: active = GI50 up to about 1.1 µM and inactive = higher.
What was measured:
Assay in all cases: inhibition of tumour cell growth, NCI panel, 48 h
T47D = tested on: T47D
MDA-N = tested on: MDA-N
HL-60 = tested on: HL-60
M19-MEL = tested on: M19-MEL
DU-145 = tested on: DU-145
MOLT-4 = tested on: MOLT-4
CCRF-CEM = tested on: CCRF-CEM
NCI-H522 = tested on: NCI-H522
CAKI-1 = tested on: CAKI-1
KM12 = tested on: KM12
TK-10 = tested on: TK-10
LOX IMVI = tested on: LOX IMVI
SN12C = tested on: SN12C
HOP-62 = tested on: HOP-62
KM-20L2 = tested on: KM-20L2
PC-3 = tested on: PC-3
DMS-273 = tested on: DMS-273
LXFL 529 = tested on: LXFL 529
OVCAR-3 = tested on: OVCAR-3
SK-MEL-5 = tested on: SK-MEL-5

Measured: GI50

NCc1ccc(O)c(O)c1O
inactive: T47D 26.2 µM | MDA-N > 10 µM | HL-60 30.3 µM | M19-MEL 12.8 µM | DU-145 62.5 µM | MOLT-4 28.4 µM | CCRF-CEM 10.9 µM | NCI-H522 > 59 µM | CAKI-1 29.3 µM | KM12 24.3 µM | TK-10 > 100 µM | LOX IMVI 16.8 µM | SN12C 20 µM | HOP-62 46.6 µM | KM-20L2 30.2 µM | PC-3 33 µM | DMS-273 16.9 µM | LXFL 529 16.8 µM | OVCAR-3 22.1 µM | SK-MEL-5 21.7 µM
